In brackets after ≈: the same amount, converted by molar mass.
How the values were obtained:
Format in all cases: functional
[1] = tested on: Mycobacterium tuberculosis; experiment: Antimycobacterial activity against extensive drug resistant Mycobacterium tuberculosis assessed as bacterial growth inhibition by agar cup diffusion assay
[2] = tested on: Mycobacterium tuberculosis; experiment: Antimycobacterial activity against multidrug resistant Mycobacterium tuberculosis assessed as bacterial growth inhibition by agar cup diffusion assay
[3] = tested on: Mycobacterium tuberculosis; experiment: Potency index, ratio of ciprofloxacin MIC to test compound MIC for antimycobacterial activity against extensive drug resistant Mycobacterium tuberculosis assessed as bacterial growth inhibition by LJ slant assay
[4] = tested on: Mycobacterium tuberculosis; experiment: Potency index, ratio of ciprofloxacin MIC to test compound MIC for antimycobacterial activity against multidrug resistant Mycobacterium tuberculosis assessed as bacterial growth inhibition by LJ slant assay

Compound | MIC [1] | MIC [2] | Ratio [3] | Ratio [4]
C=CCn1c(SCC(=O)N2CCN(c3cc4c(cc3F)c(=O)c(C(=O)O)cn4C3CC3)CC2)nnc1-c1ccccc1 | 4 µg/mL (≈ 6.8 µM) | 4 µg/mL (≈ 6.8 µM) | – | –
O=c1c(-c2nnc(S)o2)cn(C2CC2)c2cc(N3CCNCC3)c(F)cc12 | – | – | >=32 | >=32
O=C(CN1CCN(c2cc3c(cc2F)c(=O)c(C(=O)O)cn3C2CC2)CC1)Nc1nnc(-c2ccccc2)s1 | 8 µg/mL (≈ 14.6 µM) | 8 µg/mL (≈ 14.6 µM) | – | –

Reference: ChEMBL document CHEMBL5360532, “Current scenario of quinolone hybrids with potential antibacterial activity against ESKAPE pathogens” (Eur J Med Chem, 2023)
